We go through five molecules from patent US9249087B2, “HDAC inhibitors and therapeutic methods using the same” (THE BOARD OF TRUSTEES OF THE UNIVERSITY OF ILLINOIS, priority 2011, dated 2016).

The target of one series is Human HDAC1 (Homo sapiens (Human), UniProt Q13547). Briefly: HDAC1 fluorogenic peptide deacetylation inhibition assay. In kind it is biochemical. The conditions noted are these: average of two experiments; read-out: HDAC Isoform IC50 (μM) 1.
Another series deals with HDAC2 (Homo sapiens (Human), UniProt Q92769). Nature of the series: HDAC2 fluorogenic peptide deacetylation inhibition assay. It counts as biochemical. The conditions noted are these: average of two experiments; read-out: HDAC Isoform IC50 (μM) 2.
The target of the next series is Human HDAC6 (Homo sapiens (Human), UniProt Q9UBN7). Briefly: HDAC6 fluorogenic peptide deacetylation inhibition assay. In kind it is biochemical.
The next series deals with HDAC8 (Homo sapiens (Human), UniProt Q9BY41). Briefly: HDAC8 inhibition assay (fluorogenic diacyl peptide). The conditions noted are these: average of two experiments; read-out: HDAC Isoform IC50 (μM) 8. In kind it is biochemical.
Another series deals with HDAC9 (Homo sapiens (Human), UniProt Q9UKV0). Briefly: HDAC9 inhibition assay (Acetyl-Lys(trifluoroacetyl)-AMC substrate). In kind it is biochemical. The conditions noted are these: average of two experiments; read-out: HDAC Isoform IC50 (μM) 9.
Another series deals with HDAC5 (Homo sapiens (Human), UniProt Q9UQL6). Nature of the series: HDAC5 inhibition assay (Acetyl-Lys(trifluoroacetyl)-AMC substrate). The conditions noted are these: average of two experiments; read-out: HDAC Isoform IC50 (μM) 5. In kind it is biochemical.
The subject of a further series is mice with colitis. Nature of the series: colitis in mice. The conditions noted are these: treatment begun once colitis had developed. In kind it is in vivo. From the text:
Studies of autoimmunity also are undertaken. In this case, interruption of existing disease is especially important and HDAC6 targeting can be efficacious without any requirement for additional therapy (in contrast to a need for brief low-dose RPM in the very aggressive, fully MHC-mismatched transplant models). […] These studies are extended by assessing whether deletion of HDAC6 in Tregs (Foxp3/Cre) vs. T cells (CD4=Cre) vs. DC (CD11c-Cre) differentially affect the development and severity of colitis. Similarly, control of colitis is assessed by inducing HDAC6 deletion at varying intervals after the onset of colitis with tamoxifen-regulated Cre.

The next series deals with HDAC7 (Homo sapiens (Human), UniProt Q8WUI4). The settings on record: read-out: HDAC Isoform IC50 (μM) 7.
Series [1] concerns traumatic brain injury in rats. The settings on record: following traumatic brain injury in rats; cited from earlier work.
A further series has as its system primary cortical neurons. Briefly: HCA oxidative stress neuroprotection assay (MTT). In kind it is cell-based. From the text:
It has been shown that HDAC6 inhibition protects against neuronal degeneration and stimulates neurite outgrowth in dorsal root ganglion neurons, therefore indicating methods of treating CNS diseases. Accordingly, present HDACI compounds were examined in a model of oxidative stress induced by homocysteic acid (HCA). This model leads to depletion of glutathione, the major intracellular antioxidant. HDAC6 inhibition rescues neuronal death in this model, possibly by causing hyperacetylation of peroxiredoxins. […] (A. P. Kozikowski et al., J. Med. Chem. 2007, 50, 3054-61.)
FIGS. 1 and 2 contain neuroprotection bar graphs of the HCA oxidative stress test assay. Neurons were treated with TSA (FIG. 1) or a present HDACI compound (FIG. 2), alone or with the addition of HCA (homocysteic acid).
The data summarized in FIGS. 1 and 2 was obtained according to the following neuroprotective assay. Primary cortical neuron cultures were obtained from the cerebral cortex of fetal Sprague-Dawley rats (embryonic day 17). All experiments were initiated 24 hours after plating. Under these conditions, the cells are not susceptible to glutamate-mediated excitotoxicity. […] Viability was assessed after 24 hours by the MTT assay (3-(4,5-dimethylthiazol-2-yl)-2,5-diphenyltetrazolium bromide) method.

[2] abbreviates: average of two experiments, read-out: HDAC Isoform IC50 (μM) 6.

Molecules are shown by their SMILES. Read-outs that look alike come from different tables or passages of the source.

HDAC2, sequence (Q92769 whole entry, canonical isoform): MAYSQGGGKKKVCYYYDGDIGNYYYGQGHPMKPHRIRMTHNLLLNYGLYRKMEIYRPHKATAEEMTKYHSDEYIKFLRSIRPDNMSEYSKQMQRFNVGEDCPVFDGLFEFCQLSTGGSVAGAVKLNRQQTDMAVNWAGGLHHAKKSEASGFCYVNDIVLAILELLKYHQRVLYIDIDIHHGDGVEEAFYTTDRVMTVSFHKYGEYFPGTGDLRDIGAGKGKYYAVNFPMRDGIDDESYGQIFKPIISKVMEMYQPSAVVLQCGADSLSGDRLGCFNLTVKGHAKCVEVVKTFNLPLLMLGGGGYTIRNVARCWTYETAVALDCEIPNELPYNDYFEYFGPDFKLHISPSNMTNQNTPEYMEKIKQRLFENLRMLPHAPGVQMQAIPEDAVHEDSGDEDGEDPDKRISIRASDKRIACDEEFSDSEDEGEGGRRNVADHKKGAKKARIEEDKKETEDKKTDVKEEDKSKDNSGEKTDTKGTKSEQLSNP
Human HDAC6, sequence (Q9UBN7 whole entry, canonical isoform): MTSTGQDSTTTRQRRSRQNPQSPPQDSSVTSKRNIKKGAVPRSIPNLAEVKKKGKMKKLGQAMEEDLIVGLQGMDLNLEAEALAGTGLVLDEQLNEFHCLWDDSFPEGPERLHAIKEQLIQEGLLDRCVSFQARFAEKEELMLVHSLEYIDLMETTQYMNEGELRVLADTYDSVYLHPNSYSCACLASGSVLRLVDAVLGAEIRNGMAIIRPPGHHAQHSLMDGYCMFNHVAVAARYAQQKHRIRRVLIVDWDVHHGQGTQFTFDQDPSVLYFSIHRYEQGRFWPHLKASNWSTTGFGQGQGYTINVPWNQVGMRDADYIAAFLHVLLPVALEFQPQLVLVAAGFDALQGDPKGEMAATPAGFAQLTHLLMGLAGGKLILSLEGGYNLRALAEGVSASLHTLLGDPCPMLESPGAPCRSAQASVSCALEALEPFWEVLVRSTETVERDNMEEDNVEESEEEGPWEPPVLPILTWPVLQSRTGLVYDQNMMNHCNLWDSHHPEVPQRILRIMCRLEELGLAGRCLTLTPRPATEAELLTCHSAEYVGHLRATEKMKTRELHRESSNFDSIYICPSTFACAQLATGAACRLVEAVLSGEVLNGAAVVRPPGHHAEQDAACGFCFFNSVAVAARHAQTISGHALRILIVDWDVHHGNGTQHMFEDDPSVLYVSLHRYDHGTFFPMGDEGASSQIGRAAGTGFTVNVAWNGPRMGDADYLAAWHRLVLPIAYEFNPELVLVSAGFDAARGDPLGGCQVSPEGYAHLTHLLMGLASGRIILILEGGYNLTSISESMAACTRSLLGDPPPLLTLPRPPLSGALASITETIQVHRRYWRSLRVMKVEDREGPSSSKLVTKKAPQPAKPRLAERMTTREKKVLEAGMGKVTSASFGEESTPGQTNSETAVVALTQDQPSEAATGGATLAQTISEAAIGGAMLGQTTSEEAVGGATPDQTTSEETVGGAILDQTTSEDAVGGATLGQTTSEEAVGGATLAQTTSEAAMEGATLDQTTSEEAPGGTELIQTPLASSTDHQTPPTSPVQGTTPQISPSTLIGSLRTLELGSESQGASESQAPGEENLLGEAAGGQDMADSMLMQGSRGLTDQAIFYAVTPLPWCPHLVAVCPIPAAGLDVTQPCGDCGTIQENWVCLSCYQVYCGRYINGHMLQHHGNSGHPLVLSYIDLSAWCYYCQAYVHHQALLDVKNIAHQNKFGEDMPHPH
HDAC8, sequence (Q9BY41 whole entry, canonical isoform): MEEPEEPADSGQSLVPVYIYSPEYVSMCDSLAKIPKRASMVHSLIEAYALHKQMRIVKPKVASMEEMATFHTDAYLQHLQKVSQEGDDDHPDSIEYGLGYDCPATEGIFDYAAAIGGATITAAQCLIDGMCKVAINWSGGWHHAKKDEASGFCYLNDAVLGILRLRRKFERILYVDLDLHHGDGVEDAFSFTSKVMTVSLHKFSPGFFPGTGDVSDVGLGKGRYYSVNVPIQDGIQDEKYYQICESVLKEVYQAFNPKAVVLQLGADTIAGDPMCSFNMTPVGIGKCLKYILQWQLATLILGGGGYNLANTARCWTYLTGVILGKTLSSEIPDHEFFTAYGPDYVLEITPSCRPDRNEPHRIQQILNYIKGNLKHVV
Human HDAC1, sequence (Q13547 whole entry, canonical isoform): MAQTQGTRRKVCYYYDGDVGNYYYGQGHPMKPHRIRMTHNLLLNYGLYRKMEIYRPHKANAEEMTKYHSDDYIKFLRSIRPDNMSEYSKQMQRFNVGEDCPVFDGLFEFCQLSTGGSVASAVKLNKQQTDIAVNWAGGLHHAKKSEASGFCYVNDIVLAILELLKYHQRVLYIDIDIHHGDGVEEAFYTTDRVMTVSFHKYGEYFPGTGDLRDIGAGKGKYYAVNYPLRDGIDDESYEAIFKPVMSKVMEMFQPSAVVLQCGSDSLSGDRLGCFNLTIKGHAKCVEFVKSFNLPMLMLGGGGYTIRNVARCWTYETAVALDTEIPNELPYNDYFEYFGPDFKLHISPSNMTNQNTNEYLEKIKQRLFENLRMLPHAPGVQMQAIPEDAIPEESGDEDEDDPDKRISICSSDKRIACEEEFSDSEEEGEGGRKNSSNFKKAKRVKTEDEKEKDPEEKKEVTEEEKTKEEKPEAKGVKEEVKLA
HDAC9, sequence (Q9UKV0 whole entry, canonical isoform): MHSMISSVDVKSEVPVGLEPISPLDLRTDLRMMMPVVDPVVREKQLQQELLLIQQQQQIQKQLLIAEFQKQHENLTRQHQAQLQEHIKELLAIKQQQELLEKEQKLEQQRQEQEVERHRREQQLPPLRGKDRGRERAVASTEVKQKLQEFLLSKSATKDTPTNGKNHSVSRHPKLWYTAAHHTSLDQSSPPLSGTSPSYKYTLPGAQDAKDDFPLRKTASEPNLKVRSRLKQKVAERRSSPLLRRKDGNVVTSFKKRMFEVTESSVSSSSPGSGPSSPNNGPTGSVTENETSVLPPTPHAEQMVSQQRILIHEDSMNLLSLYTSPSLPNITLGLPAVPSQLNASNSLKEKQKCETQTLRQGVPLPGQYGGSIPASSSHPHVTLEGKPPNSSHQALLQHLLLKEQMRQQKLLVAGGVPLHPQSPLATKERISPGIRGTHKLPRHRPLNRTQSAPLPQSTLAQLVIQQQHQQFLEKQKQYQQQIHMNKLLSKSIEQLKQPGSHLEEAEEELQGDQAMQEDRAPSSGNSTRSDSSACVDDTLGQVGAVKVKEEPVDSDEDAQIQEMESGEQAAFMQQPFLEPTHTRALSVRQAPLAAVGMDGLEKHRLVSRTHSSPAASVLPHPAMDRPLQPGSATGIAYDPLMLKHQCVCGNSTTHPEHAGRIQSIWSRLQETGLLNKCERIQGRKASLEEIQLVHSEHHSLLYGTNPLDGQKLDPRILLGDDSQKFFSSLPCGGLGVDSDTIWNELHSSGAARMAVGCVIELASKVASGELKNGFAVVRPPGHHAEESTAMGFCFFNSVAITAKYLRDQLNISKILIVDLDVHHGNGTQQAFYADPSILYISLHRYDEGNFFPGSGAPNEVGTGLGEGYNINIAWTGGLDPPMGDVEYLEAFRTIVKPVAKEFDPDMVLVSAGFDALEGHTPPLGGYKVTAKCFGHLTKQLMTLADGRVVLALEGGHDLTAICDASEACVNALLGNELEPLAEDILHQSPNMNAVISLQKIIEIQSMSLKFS
HDAC7, sequence (Q8WUI4 whole entry, canonical isoform): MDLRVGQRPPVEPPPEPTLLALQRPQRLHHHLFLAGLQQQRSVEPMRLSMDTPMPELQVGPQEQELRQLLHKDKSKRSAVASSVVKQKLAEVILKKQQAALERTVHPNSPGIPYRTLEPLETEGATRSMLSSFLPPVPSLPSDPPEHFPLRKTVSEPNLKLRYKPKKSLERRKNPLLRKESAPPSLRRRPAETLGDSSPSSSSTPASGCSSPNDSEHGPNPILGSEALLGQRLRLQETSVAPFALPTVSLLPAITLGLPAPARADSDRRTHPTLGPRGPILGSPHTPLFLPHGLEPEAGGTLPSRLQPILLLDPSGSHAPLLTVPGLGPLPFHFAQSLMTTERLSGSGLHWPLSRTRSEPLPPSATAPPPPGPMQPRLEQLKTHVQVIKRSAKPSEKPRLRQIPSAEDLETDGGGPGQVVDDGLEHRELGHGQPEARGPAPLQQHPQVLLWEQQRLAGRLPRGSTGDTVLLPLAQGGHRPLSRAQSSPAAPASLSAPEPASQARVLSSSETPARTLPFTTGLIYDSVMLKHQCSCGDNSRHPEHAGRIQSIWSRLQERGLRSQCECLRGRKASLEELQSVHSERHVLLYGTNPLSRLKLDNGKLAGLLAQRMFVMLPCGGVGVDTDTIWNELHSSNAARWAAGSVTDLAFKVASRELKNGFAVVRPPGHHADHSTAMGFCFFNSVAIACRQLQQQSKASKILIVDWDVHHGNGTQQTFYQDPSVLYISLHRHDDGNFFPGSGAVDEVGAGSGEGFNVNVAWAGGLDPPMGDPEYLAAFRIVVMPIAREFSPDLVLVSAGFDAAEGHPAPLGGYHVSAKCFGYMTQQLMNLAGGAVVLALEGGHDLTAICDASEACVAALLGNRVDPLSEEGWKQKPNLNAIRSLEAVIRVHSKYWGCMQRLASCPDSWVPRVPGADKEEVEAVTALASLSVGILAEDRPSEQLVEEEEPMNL

In general, IC50 refers to the concentration that inhibits the measured activity by half. As to `O=C(NO)c1ccc(Cn2ccc3ccccc32)cc1` [Compound 2, 4-((1H-Indol-1-yl)methyl)-N-hydroxybenzamide], the 50% inhibitory concentration (IC50) was 5.83 µM on Human HDAC1; 9.19 µM at HDAC2; 0.00975 µM at Human HDAC6 (setting [2]); 0.417 µM on HDAC8; 8.16 µM at HDAC9.

As for `O=C(CCCCCCC(=O)Nc1ccc([C@H]2O[C@@H](CSc3nc(-c4ccccc4)c(-c4ccccc4)o3)C[C@@H](c3ccc(CO)cc3)O2)cc1)NO` [Tubacin], the IC50 at HDAC2 was found to be 6.27 µM; on HDAC5 it was 3.35 µM; at HDAC7, 9.7 µM. Also, the “rescue of mice with established colitis” value in the series on mice with colitis was “able to rescue mice”.

On to `CN(C)c1ccc(C(=O)NCCCCCNC(=O)CS)cc1` [DMA-PB, 4-dimethylamino-N-[5-(2-mercaptoacetylamino)pentyl]benzamide], for which, in series [1], the “histone H3 acetylation” value is listed as “increase histone H3 acetylation” and the microglia inflammatory response result is reported as “reduce microglia inflammatory response”.

As to `CC(/C=C/C(=O)NO)=C\[C@@H](C)C(=O)c1ccc(N(C)C)cc1` [TSA, Trichostatin A], the “neuroprotection in HCA-induced neurodegeneration assay” value in the series on primary cortical neurons (0.5 μM, HCA 5 mM, viability by MTT after 24 hours) is listed as “moderately neuroprotective”. Moreover, in the series on primary cortical neurons (higher concentrations than 0.5 μM), the “neurotoxicity to primary cortical neurons” value is recorded as “dose-dependant neurotoxicity”.

As for `Cc1cc2ccccc2n1Cc1ccc(C(=O)NO)cc1` [Compound 4, N-Hydroxy-4-((2-methyl-1H-indol-1-yl)methyl)benzamide], the half-inhibitory concentration (IC50) at Human HDAC1 was found to be 5.34 µM; on HDAC2, 8.14 µM; at Human HDAC6 (setting [2]), 0.00251 µM; at Human HDAC6 (read-out: HDAC6 IC50), 0.0025 µM; on HDAC8, 0.397 µM; at HDAC9, 18.3 µM. Also, the “selectivity against HDAC1” value at Human HDAC6 (HDAC6 vs HDAC1, running text) is 2125 fold.
